Assay results: patent US20060128721A1, “Novel formulations of opioid-based treatments of pain comprising substituted 1,4-di-piperidin-4-yl-piperazine derivatives” (priority 2003, published 2006)
Where two headings read alike, the source gives them in different places. Blank lines part the entries; values can stand above or below the compound they belong to.

Key:
[1] = test system: loperamide-induced retching; assay: Antiemetic effects: loperamide-induced retching in ferrets; assay type: in vivo; conditions: for Ratio p.o./s.c. of ED50 for blockade of retching: p.o. (−2 h) over s.c. (−1 h)
Experimental: The antiemetic effects have been determined using the loperamide-induced retching model (i.e. retching induced by an opioid) in ferrets. To exclude species differences in antiemetic activiey, both compounds have also been tested for antiemetic activity against apomorphine in dogs.
Antagonism of emesis induced by the peripherally selective opioid loperamide (0.31 mg/kg, s.c.) was studied over a 1 h-period starting immediately after the emetic challenge in ferrets pretreated with test compound or solvent. In control animals pre-treated with solvent, loperamide induced pronounced retching (mean±SD: 95±39 counts; n=[…]) and, to a lesser extent, vomiting (5±4).

[2] = target: T1, cloned human h-NK1 receptors expressed in CHO cells (Homo sapiens, UniProt P25103); assay: Binding experiment for h-NK1 receptors ([3H]-Substance P displacement); conditions: read-out: h-NK1 pIC50 (converted)
T1 construct: expressed in transfected cells; host or cells: CHO cells
T1 sequence (P25103 whole entry): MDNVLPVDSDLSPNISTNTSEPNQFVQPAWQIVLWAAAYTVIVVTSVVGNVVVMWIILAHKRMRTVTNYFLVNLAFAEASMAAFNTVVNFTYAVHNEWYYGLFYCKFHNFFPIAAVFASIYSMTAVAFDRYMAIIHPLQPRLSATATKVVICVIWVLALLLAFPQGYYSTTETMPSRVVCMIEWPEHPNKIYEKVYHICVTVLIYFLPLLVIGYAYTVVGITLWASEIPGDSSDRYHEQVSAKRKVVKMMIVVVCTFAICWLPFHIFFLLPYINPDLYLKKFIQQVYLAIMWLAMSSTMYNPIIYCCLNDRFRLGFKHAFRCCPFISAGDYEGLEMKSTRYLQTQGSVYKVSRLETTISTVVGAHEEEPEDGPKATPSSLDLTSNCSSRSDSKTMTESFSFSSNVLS
Experimental: (§1) The compounds according to the invention were investigated for interaction with various neurotransmitter receptors, ion channels and transporter binding sites using the radioligand binding technique. Membranes from tissue homogenates or from cells, expressing the receptor or transporter of interests, were incubated with a radioactively labelled substance ([^3H]- or [^125I] ligand) to label a particular receptor. […] Following incubation, labelled membranes were harvested and rinsed with excessive cold buffer to remove non-bound radioactivity by rapid filtration under suction. Membrane bound radioactivity was counted in a scintillation counter and results were expressed in counts per minute (cpm).
(§2) The compounds were dissolved in DMSO and tested at 10 concentrations ranging from 10^−10 to 10^−5 M.
(§3) The ability of the compounds according to the invention to displace [^3H]-Substance P from cloned human h-NK1 receptors expressed in CHO cells, to displace [^3H]-SR-48968 from cloned human h-NK2 receptors expressed in Sf9 cells, and to displace [^3H]-SR-142801 from cloned human h-NK3 receptors expressed in CHO cells was evaluated.

[3] = target: T2, cloned human h-NK2 receptors expressed in Sf9 cells (Homo sapiens, UniProt P21452); assay: Binding experiment for h-NK2 receptors ([3H]-SR-48968 displacement); conditions: [3H]-SR-48968, Sf9 cells; read-out: h-NK2 pIC50 (converted)
T2 construct: expressed in transfected cells; host or cells: Sf9 cells
T2 sequence (P21452 1-398): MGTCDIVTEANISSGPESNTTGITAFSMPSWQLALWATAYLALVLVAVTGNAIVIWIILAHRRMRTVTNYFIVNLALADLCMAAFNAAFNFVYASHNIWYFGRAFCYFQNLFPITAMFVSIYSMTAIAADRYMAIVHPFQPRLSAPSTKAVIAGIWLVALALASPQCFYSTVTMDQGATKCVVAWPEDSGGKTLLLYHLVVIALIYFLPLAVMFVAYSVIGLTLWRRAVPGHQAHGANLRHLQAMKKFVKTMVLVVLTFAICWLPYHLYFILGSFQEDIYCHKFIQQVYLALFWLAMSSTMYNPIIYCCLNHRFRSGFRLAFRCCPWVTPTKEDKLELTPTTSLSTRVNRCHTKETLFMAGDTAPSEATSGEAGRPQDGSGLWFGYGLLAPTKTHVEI
Experimental: as §1, §2, §3

[4] = ferrets, loperamide 0.31 mg/kg s.c., 1 h after subcutaneous administration, blockade = 0 retches
[5] = ferrets, loperamide 0.31 mg/kg s.c., 2 h after oral administration, blockade = 0 retches
[6] = read-out: ED50 (95% confidence limits) for blockade of loperamide-induced retching, p.o. route (−2 h), ferrets, loperamide 0.31 mg/kg s.c., 2 h after oral administration, blockade = 0 retches
[7] = sc, read-out: ED50 for blockade of loperamide-induced retching, ferrets, loperamide 0.31 mg/kg s.c., 1 h after subcutaneous administration, blockade = 0 retches

Structure (SMILES): C[C@@H](O[C@H]1OCCN(Cc2n[nH]c(=O)[nH]2)[C@H]1c1ccc(F)cc1)c1cc(C(F)(F)F)cc(C(F)(F)F)c1 [Aprepitant/MK-869, Aprepitant, reference compound]
ED50 for blockade of loperamide-induced retching, s.c. route (−1 h) [1, 4]: >1.25 mg/kg
ED50 (95% confidence limits) for blockade of loperamide-induced retching, p.o. route (−2 h) [1, 5]: 3.1 (1.9-5.0) mg/kg
Ratio p.o./s.c. of ED50 for blockade of retching ([1]; ferrets): <2.5

Structure (SMILES): COc1ccccc1CN[C@H]1C2CCN(CC2)[C@H]1C(c1ccccc1)c1ccccc1 [CP-96345, reference compound]
ED50 ([1]; sc, 1 h, read-out: ED50 for blockade of loperamide-induced retching, s.c. route (−1 h)): > 10 mg/kg

Structure (SMILES): COc1ccccc1CN[C@H]1CCCN[C@H]1c1ccccc1 [CP-99994, reference compound]
Ratio p.o./s.c. of ED50 for blockade of retching ([1]; ferrets): >16
ED50 [1, 6]: > 10 mg/kg
ED50 [1, 7]: 0.63 mg/kg

Structure (SMILES): O=C(C(c1ccccc1)N1CCC(N2CCN(C3CCN(C(=O)c4cc(C(F)(F)F)cc(C(F)(F)F)c4)C(Cc4ccccc4)C3)CC2)CC1)N1CCOCC1 (stereo not shown) [Compound 6]
IC50 [2]: 1 nM

Structure (SMILES): O=C(c1cccc(C(=O)N2CCC(N3CCN([C@H]4CCN(C(=O)c5cc(C(F)(F)F)cc(C(F)(F)F)c5)[C@H](Cc5ccccc5)C4)CC3)CC2)c1)N1CCCC1 [Compound 45]
IC50 [2]: 0.316 nM

Structure (SMILES): C[C@@H](O[C@H]1OCCN(Cc2n[nH]nc2CN(C)C)[C@H]1c1ccc(F)cc1)c1cc(C(F)(F)F)cc(C(F)(F)F)c1 [Compound L-760735, reference compound]
ED50 for blockade of loperamide-induced retching, s.c. route (−1 h) [1, 4]: 0.31 mg/kg

Structure (SMILES): COc1ccc(-n2cnnn2)cc1CN[C@H]1CCCN[C@H]1c1ccccc1 [GR-203040, (2S,3S)-(2-methoxy-5-tetrazol-1-ylbenzyl)(2-phenylpiperidin-3-yl)amine, reference compound]
Ratio p.o./s.c. of ED50 for blockade of retching ([1]; ferrets): 3.1
ED50 [1, 6]: 0.2 mg/kg
ED50 [1, 7]: 0.064 mg/kg

Structure (SMILES): CN(Cc1ccccc1)C(=O)C(Cc1ccc2ccccc2c1)NC(=O)[C@@H]1CCCN1C(=O)Nc1ccccc1[N+](=O)[O-] (stereo partly drawn) [SDZ-NKT-343, 2-Nitrophenylcarbamoyl-(S)-prolyl-3-(2-naphthyl)alanyl-N-benzyl-N-methylamide, reference compound]
ED50 (95% confidence limits) for blockade of loperamide-induced retching, p.o. route (−2 h) [1, 5]: >2.5 mg/kg

Now from value to compound, other results behind:

IC50 [2]: 0.631 nM
Structure (SMILES): Cc1ccc(O)c(CN2CCC(N3CCN(C4CCN(C(=O)c5cc(C(F)(F)F)cc(C(F)(F)F)c5)C(Cc5ccccc5)C4)CC3)CC2)n1 (stereo not shown) [Compound 8]

IC50 [2]: 2.51 nM
Structure (SMILES): O=C(c1cccc(N2CCCC2)c1)N1CCC(N2CCN([C@H]3CCN(C(=O)c4cc(C(F)(F)F)cc(C(F)(F)F)c4)[C@H](Cc4ccccc4)C3)CC2)CC1 [Compound 42]

IC50 [3]: 794 nM
IC50 [2]: 1 nM
Structure (SMILES): Cc1nnsc1C(=O)N1CCC(N2CCN([C@H]3CCN(C(=O)c4cc(C(F)(F)F)cc(C(F)(F)F)c4)[C@H](Cc4ccccc4)C3)CC2)CC1 [Compound 77, (2-benzyl-4-{4-[1-(4-methyl-[1,2,3]thiadiazole-5-carbonyl)-piperidin-4-yl]-piperazin-1-yl}-piperidin-I -yl)-(3,5-bis-trifluoromethyl-phenyl)-methanone]
ratio of oral ED50 (at time of peak effect) over subcutaneous ED50 (obtained at 1 h) ([1]; ferrets): 1.1
ED50 ([1]; ferrets, blockade (=0 retches), intravenous route, 1 h after administration, read-out: ED50 for blockade of loperamide-induced retching): 0.26 mg/kg
ED50 ([1]; ferrets, blockade (=0 retches), oral route, 1 h after administration, read-out: ED50 for blockade of loperamide-induced retching): 0.72 mg/kg
ED50 ([1]; ferrets, blockade (=0 retches), oral route, 2 h after administration, read-out: ED50 for blockade of loperamide-induced retching): 0.42 mg/kg
ED50 ([1]; ferrets, blockade (=0 retches), oral route, 4 h after administration, read-out: ED50 for blockade of loperamide-induced retching): 0.77 mg/kg
ED50 ([1]; ferrets, blockade (=0 retches), oral route, 8 h after administration, read-out: ED50 for blockade of loperamide-induced retching): 0.34 mg/kg
ED50 ([1]; ferrets, blockade (=0 retches), oral route, 16 h after administration, read-out: ED50 for blockade of loperamide-induced retching): 1.66 mg/kg
ED50 ([1]; ferrets, blockade (=0 retches), oral route, 32 h after administration, read-out: ED50 for blockade of loperamide-induced retching): > 2.5 mg/kg
ED50 ([1]; ferrets, inhibition (<20 retches), intravenous route, 1 h after administration, read-out: ED50 for inhibition of loperamide-induced retching): 0.15 mg/kg
ED50 ([1]; ferrets, inhibition (<20 retches), oral route, 1 h after administration, read-out: ED50 for inhibition of loperamide-induced retching): 0.31 mg/kg
ED50 ([1]; ferrets, inhibition (<20 retches), oral route, 2 h after administration, read-out: ED50 for inhibition of loperamide-induced retching): 0.08 mg/kg
ED50 ([1]; ferrets, inhibition (<20 retches), oral route, 4 h after administration, read-out: ED50 for inhibition of loperamide-induced retching): 0.26 mg/kg
ED50 ([1]; ferrets, inhibition (<20 retches), oral route, 8 h after administration, read-out: ED50 for inhibition of loperamide-induced retching): 0.29 mg/kg
ED50 ([1]; ferrets, inhibition (<20 retches), oral route, 16 h after administration, read-out: ED50 for inhibition of loperamide-induced retching): 0.73 mg/kg
ED50 ([1]; ferrets, inhibition (<20 retches), oral route, 32 h after administration, read-out: ED50 for inhibition of loperamide-induced retching): ~2.5 mg/kg
ED50 ([1]; ferrets, oral administration, time of peak effect, read-out: graphically estimated peak-effect ED50 for blockade of retching (=0 retches)): 0.34 mg/kg
duration of action ([1]; ferrets, oral, at 4 times the peak-effect dose): 16 h
Ratio p.o./s.c. of ED50 for blockade of retching ([1]; ferrets): 1.3
ED50 ([1]; iv, read-out: ED50 for blockade of retching 1 h after i.v. injection, ferrets, i.v., 1 h): 0.26 mg/kg
ED50 ([1]; iv, read-out: ED50 for inhibition of retching 1 h after i.v. injection, ferrets, i.v., 1 h): 0.15 mg/kg
ED50 [1, 6]: 0.42 mg/kg
ED50 ([1]; read-out: graphically estimated peak-effect ED50 for inhibition of retching (<20 retches), ferrets, oral administration, time of peak effect): 0.16 mg/kg
ED50 [1, 7]: 0.32 mg/kg
ED50 ([1]; sc, ferrets, blockade (=0 retches), subcutaneous route, 1 h after administration, read-out: ED50 for blockade of loperamide-induced retching): 0.32 mg/kg
ED50 ([1]; sc, ferrets, inhibition (<20 retches), subcutaneous route, 1 h after administration, read-out: ED50 for inhibition of loperamide-induced retching): 0.18 mg/kg
ED50 ([1]; sc, ferrets, s.c., 1 h, <20 retches, read-out: ED50 for inhibition of retching one hour after s.c. injection): 0.18 mg/kg
ED50 ([1]; sc, ferrets, s.c., 1 h, =0 retches, read-out: ED50 for complete blockade of retching one hour after s.c. injection): 0.32 mg/kg

IC50 [3]: 398 nM
IC50 [2]: 0.794 nM
Structure (SMILES): Cc1nnsc1C(=O)N1CCC(N2CCN([C@H]3CCN(C(=O)c4cc(C(F)(F)F)cc(C(F)(F)F)c4)[C@H](Cc4ccccc4)C3)CC2)CC1 [Compound 78]

IC50 [2]: 3.16 nM
Structure (SMILES): O=C(c1cncc(N2CCCC2)c1)N1CCC(N2CCN(C3CCN(C(=O)c4cc(C(F)(F)F)cc(C(F)(F)F)c4)C(Cc4ccccc4)C3)CC2)CC1 (stereo not shown) [Compound 85]

IC50 [2]: 1 nM
Structure (SMILES): O=C(C1CCC1)N1CCC(N2CCN([C@H]3CCN(C(=O)c4cc(C(F)(F)F)cc(C(F)(F)F)c4)[C@H](Cc4ccccc4)C3)CC2)CC1 [Compound 102]

IC50 [2]: 1.58 nM
Structure (SMILES): O=C(c1cc(C(F)(F)F)cc(C(F)(F)F)c1)N1CC[C@H](N2CCN(C3CCN(C(=O)C4(c5ccccc5)CC4)CC3)CC2)C[C@H]1Cc1ccccc1 [Compound 108]

IC50 [2]: 0.1 nM
Structure (SMILES): O=C(/C=C/c1cccnc1)N1CCC(N2CCN([C@H]3CCN(C(=O)c4cc(C(F)(F)F)cc(C(F)(F)F)c4)[C@H](Cc4ccccc4)C3)CC2)CC1 [Compound 110]

IC50 [3]: 631 nM
IC50 [2]: 1.26 nM
Structure (SMILES): Cc1nnsc1C(=O)N1CCC(N2CCN([C@H]3CCN(C(=O)c4cc(C(F)(F)F)cc(C(F)(F)F)c4)[C@H](Cc4ccccc4)C3)CC2)CC1 [Compound 142]

IC50 [3]: 794 nM
IC50 [2]: 1 nM
Structure (SMILES): Cc1nnsc1C(=O)N1CCC(N2CCN([C@H]3CCN(C(=O)c4cc(C(F)(F)F)cc(C(F)(F)F)c4)[C@H](Cc4ccccc4)C3)CC2)CC1 [Compound 143]
